# Assay results published in patent publication US6495590B1, “Use of amtolmetin guacyl for the production of anti-inflammatory drugs for intestinal inflammations” (Medosan Ricerca S.r.l., priority 1998, dated 2002).
# Key:
# [1] = test system: indomethacin-induced small intestine inflammation; assay: Indomethacin-induced small intestine inflammation; format: in vivo, rat
# Experimental: (§1) Male Wistar rats, 180±20g quarantined for at least 5days and fasted for 18 h prior to the beginning of the trial (on a grid to avoid coprophagy) with free access to water.
# The animals were treated with indomethacin (7.5 mg/Kg by subcutaneous administration in NaHCO3 5%) at T=0 and T=+1 day.
# MED 15 (100 mg/Kg per os in 1% CMC) was administered according to two different treatments:
# Scheme no. 1: T=0, +1 and 2 days
# Scheme no. 2: T=0, +1, +2, +5, +6, +7 days
# 24 h after the last administration the animals were killed by cervical dislocation; the small intestine (from the pylorus to the ileocecal valve), removed and opened lengthwise, was washed in physiological solution at pH 7.4 for damage evaluation.
# Considered parameters are: […]
# myeloperoxidase (MPO), neutrophil indicator; malondialdehyde (MDA), oxidative process indicator. data were evaluated by Student's t-test
# [2] = test system: acetic acid-induced colitis; assay: Acetic acid-induced colitis; format: in vivo, rat; details: MED 15 100 mg/Kg per os at T-48 h, -24 h, -2 h; acetic acid controls 949±66
# Experimental: as §1
# Colitis was induced in animals by administration of 5% acetic acid (1.5 ml/rat) in the distal colon lumen with an 8 cm cannula at T=0.
# MED 15 (100 mg/Kg per os) was administered at T−48 h, −24 h and −2 h.
# 24 h after colitis induction, animals were killed by cervical dislocation and the colon removed and washed in physiological solution at pH 7.4, was examined for damage evaluation.
# (§2) Considered parameters are:
# malondialdehyde (MDA), oxidative process indicator.
# (§3) data were evaluated by Student's t-test
# TNB-induced colitis = assay: TNB-induced colitis; format: in vivo, rat; details: MED 15 100 mg/Kg per os T=0, +1, +2, +3 days
# Experimental: as §1
# Colitis was induced in animals by administration of 15 mg TNB (trinitrobenzosulphonic acid) in 0.25 ml of 30% ethanol in the colon lumen and with an 8 cm cannula at T=0.
# MED 15 (100 mg/Kg per os in 1% CMC) was administered to:
# 5 h after the last administration the animals were killed by cervical dislocation, the colon (8 cm distal portion) removed for damage evaluation.
# as §2
# myeloperoxidase (MPO), neutrophil indicator;
# as §3
# human ulcerative colitis = assay: Double-blind, controlled, randomized clinical trial in ulcerative colitis; format: in vivo; details: MED 15 1200 mg/day plus 5-aminosalicylic acid, 60 days, vs 5-ASA plus placebo
# Experimental: A double-blind, controlled, randomized study was carried out in patients affected by two simultaneous pathologies: ulcerative colitis and osteoarticolar disease (osteoarthritis, rheumatoid arthritis, extra-articular rheumatism).
# 20 patients were divided into 2 homogeneous groups of 10 patients each (Group A and Group B):
# Group A was treated with 5-aminosalicylic acid 1200 mg/day and placebo
# Group B was treated with 5-aminosalicylic acid […] and MED 15 1200 mg/day
# The following clinical evaluations were performed at the beginning of the study (T0), T15, T30, and T60 (end of therapy):
# 1) endoscopic examination of intestinal mucosa
# 2) annotation of symptomatology referred by the patients.
# The severity of these parameters was expressed by a score as follows: […]
# [3] = test system: rabbit PRP (plasma rich in platelets); assay: Platelet aggregation on rabbit PRP, agonist arachidonic acid sodium salt; format: cell-based; details: Oryctolagus cuniculus
# Experimental: (§4) Male New Zealand rabbits, 2000-3000 g [Stefano Morini, S. Polo D'Enza, RE Italy], quarantined for 5 days prior beginning of the trial (anti-piatelet effect). Male Wistar rats, 250±20 g [IFFA CREDO, Italy] randomized, divided into groups of 5 animals each and fasted for 16 h prior to treatment (thromboanemia determination).
# (§5) Blood was intracardially collected from rabbits, using as anticoagulant sodium citrate at a final concentration of 0.38% and centrifuged for 15′ at 150 g in order to obtain a plasma rich in platelets (PRP). PRP was used at a concentration of 3.5×10^8 platelet/ml. MED 15 and reference products were incubated with the PRP for 3′ at 37 C° prior to addition of the aggregating agent. Platelet aggregation induced by arachidonic acid, sodium salt [TAC (threshold aggregation concentration): 140 μm] and collagen (TAC: 28 μg/ml) was measured using an aggregometer (Chronolog model 500) according to the Born's method ([…]. Nature 1962; 194: 927-929) and was expressed as inhibition percentage with respect to the agonist mean response.
# [4] = test system: rabbit PRP (plasma rich in platelets); assay: Platelet aggregation on rabbit PRP, agonist collagen; format: cell-based; details: Oryctolagus cuniculus
# Experimental: as §4, §5
# TXB2 plasma levels = assay: TXB2 (thromboxane) determination in rat; format: in vivo; details: for TXB2 ng/ml ± S.E. / inhibition at 100 mg/kg: 100 mg/kg per os, blood 3 h after treatment; for TXB2 ng/ml ± S.E.: controls 174.1 ± 42.6; for % inhibition of TXB2 plasma levels: kinetics; for inhibition at 100 mg/kg: po, vs controls
# Experimental: as §4
# The animals received per OS 100 mg/kg (1.5 ml/rat) MED 15 and (acetyl salicylic acid) suspended in 1% CMC, and controls received the vehicle only. […] Tromboxane content was determined in the serum thus obtained using a RIA kit [Amersham TRK780]. The results obtained can be evaluated with reference to the following tables and figures.
smiles,measurement,setting,value
"COc1ccccc1OC(=O)CNC(=O)Cc1ccc(C(=O)c2ccc(C)cc2)n1C [MED 15, 2-metoxyphenyl-1-methyl-5-p-methylbenzoyl-pirrol-2-acetamido acetate]",reduction in the number of ulcers,"[1]; scheme no. 1 (acute phase, T=0, +1 and 2 days), MED 15 100 mg/Kg per os, vs indomethacin controls",44.3%
same,score,"[1]; scheme no. 1, MED 15 100 mg/Kg per os, indomethacin controls 7.62±1.84",4.63±2.73
same,tissutal levels of MPO,"[1]; scheme no. 1, after MED 15 treatment 100 mg/Kg per os",diminution
same,decrease of score value,"[1]; scheme no. 2 (prolonged), MED 15 100 mg/Kg per os",58.4%
same,decrease in number of ulcers,"[1]; scheme no. 2 (prolonged, T=0, +1, +2, +5, +6, +7 days), MED 15 100 mg/Kg per os",86.1%
same,malondialdehyde levels,[2],719 ± 60 nmol/g
same,"colon walls weight, change compared to TNB control",TNB-induced colitis,−28.6%
same,"myeloperoxidase levels, change compared to TNB control",TNB-induced colitis,−33.1%
same,"score, change compared to TNB control",TNB-induced colitis,−35.2%
same,effectiveness in ulcerative colitis (mucosal inflammation and symptomatology scores),human ulcerative colitis,more effective than 5-ASA
same,healing time,human ulcerative colitis,dramatically reduced compared to 5-ASA
same,inhibition at 0.5 µM,[3]; 0.5 μM,7.7%
same,inhibition at 1.25 µM,[3]; 1.25 μM,100%
same,inhibition at 2.5 µM,[3]; 2.5 μM,100%
same,inhibition at 5 µM,[3]; 5.0 μM,100%
same,inhibition at 0.05 µM,[4]; 0.05 μM,0%
same,inhibition at 0.1 µM,[4]; 0.10 μM,34.3%
same,inhibition at 0.39 µM,[4]; 0.39 μM,100%
same,duration of the effect on TXB2 plasma levels,TXB2 plasma levels,24 h
same,TXB2 ng/ml ± S.E.,TXB2 plasma levels,14.3 ± 1.3 ng/mL
same,% inhibition of TXB2 plasma levels,TXB2 plasma levels; 0.75 h,93.2%
same,% inhibition of TXB2 plasma levels,TXB2 plasma levels; 1.5 h,90.8%
same,% inhibition of TXB2 plasma levels,TXB2 plasma levels; 3.0 h,91.4%
same,% inhibition of TXB2 plasma levels,TXB2 plasma levels; 24.0 h,49.2%
same,inhibition at 100 mg/kg,TXB2 plasma levels,91.8%
"CC(=O)Oc1ccccc1C(=O)O [ASA, acetylsalicylic acid, reference compound]",inhibition at 25 µM,[3]; 25.0 μM,0%
same,inhibition at 50 µM,[3]; 50.0 μM,83.3 ± 16.7%
same,inhibition at 100 µM,[3]; 100.0 μM,100%
same,inhibition at 12.5 µM,[4]; 12.5 μM,18.4 ± 10.5%
same,inhibition at 25 µM,[4]; 25.0 μM,33.7 ± 2.1%
same,inhibition at 50 µM,[4]; 50.0 μM,70.4 ± 14.9%
same,inhibition at 100 µM,[4]; 100.0 μM,100%
same,TXB2 ng/ml ± S.E.,TXB2 plasma levels,2.9 ± 1.1 ng/mL
same,inhibition at 100 mg/kg,TXB2 plasma levels,98.3%
